In a melting point compilation (Tetko et al.; mined from patent text by program, amines drawn as free bases though some values may be those of a salt) one finds melting point data, which are given here for 89 compounds.

Some results are limits rather than exact numbers.

`Cc1nnc(-c2ccc3occ(-c4cccc(F)c4)c3c2)o1` displayed a melting point of 138 to 139 °C.

In the case of `CN(C)C(=O)NCc1cccc2c1C(=O)N(C1CCC(=O)NC1=O)C2=O` (centres undefined), the melting point fell in the range of 143 to 145 °C.

Consider `Fc1ccc(Nc2nc(Cl)nc(NN=Cc3ccc(OC(F)(F)F)cc3)n2)cc1C(F)(F)F`, for which the melting point lay within 109 to 111 °C.

In turn, `CN1CCN(C(=O)Oc2ccccc2)C1=C(C(=O)Oc1ccccc1)[N+](=O)[O-]` showed a melting point of 214 to 215 °C.

The compound `Cc1nn(-c2ccccc2)c(-c2ccc(Cl)cc2)c1CC(=O)O` returned a melting point of 174 to 177 °C.

As to `Cc1c(F)cccc1NN`, the melting point was determined as 69 °C.

Turning to `CC1(C)Oc2cc(C(=O)O)sc2[C@@H](N2CCCCC2=O)[C@@H]1O` (relative stereo), the melting point fell in the range of 268 to 270 °C.

In the case of `O=C(O)c1cc(Cl)c(C(=O)O)c([N+](=O)[O-])c1Cl`, the melting point fell in the range of 287 to 288 °C.

Regarding `CNc1nc(-c2cccc(NC(=O)c3ccncc3)c2)c2cc(OC)c(OC)cc2n1`, the melting point is 228 to 230 °C.

As for `COc1ccc(-c2nc3cnncc3[nH]2)c(OC)c1`, the melting point was 268 °C.

As to `O=C(Nc1cc2nc(-c3ccc(C(=O)C4CCCCC4)cc3)[nH]c2cn1)c1ccccn1`, the melting point was 258 °C.

The compound `CCC(O)(c1cccc(C(F)(F)F)c1)c1ccc(O)cc1O` (centres undefined) came in with a melting point of 137 to 138 °C.

Turning to `CCC(CC)N(O)C(=O)Nc1ccc(Br)cc1`, the melting point was in the range of 129 to 131 °C.

In turn, `O=C(NCc1nc2cnc3cc(Br)ccc3c2n1CC1CCOCC1)C1CC1` had a melting point of 140 °C.

In turn, `Cc1csc(=Nc2ccc(C(C)C(=O)O)c(Cl)c2)n1C` (centres undefined) displayed a melting point of 132 to 133 °C.

With `CC(=NNC(=N)N)c1sc(-c2ccc(C3=CCCCC3)cc2)nc1C`, the melting point is 213 to 215 °C.

Consider `OCc1nnc2n1-c1sc(Cl)cc1C(c1ccccc1Cl)=NC2`, for which the melting point was in the range of 219 to 221 °C.

`C=CC(=O)N1CCSc2ccc(OC)cc2C1` displayed a melting point of 79 to 81 °C.

In turn, `CN(CC(F)(F)F)C(=O)COc1nnc(-c2ccccc2)s1` registered a melting point of 123 °C.

As to `Nc1nc(N)nc(-c2cnccn2)n1`, the melting point was above 250 °C.

For the compound `COCc1cccc(C=O)c1NC(=O)CC1c2ccccc2Oc2ccccc21`, the melting point is 202 to 203 °C.

As for `C=C1CC2CC(O)CCC2(C)C2CCC3(C)C(C(C)CCC(=O)O)CCC3C12` (centres undefined), the melting point was 104 to 105 °C.

The compound `CC(C)(C)c1cc(-c2nn(C(=O)c3cccs3)c3ncccc23)cc(C(C)(C)C)c1O` had a melting point of 240 to 242 °C.

`CCOC(=O)c1ccc(OCC(=NO)c2ccc3c(c2)C(C)(C)CCC3(C)C)cc1O` yielded a melting point of 130 °C.

Compound `Cc1c(OCC(F)(F)F)ccnc1CS(=O)c1nc2cc(N3CCN(C)CC3)c(F)cc2[nH]1` (centres undefined) gave a melting point of 73 to 74 °C.

Consider `CCCN(CCC)C(=O)COc1nc(-c2ccc(F)cc2)nc2c1CCCC2`, for which the melting point was in the range of 95 to 96 °C.

Take `Cc1ccc2[nH]c(=O)c(=O)[nH]c2c1CN(C)Cc1ccccc1`: the melting point is 205 to 206 °C.

Turning to `CC(Cc1ccc(Cl)cc1Cl)NC(=O)c1ccccc1C(F)(F)F` (centres undefined), the melting point turned out to be 142 °C.

`Nc1nc2c(c(N3CCN(Cc4ccccc4)CC3)n1)SCCC2` gave a melting point of 124 to 127 °C.

In turn, `CN1C(c2ccc(Cl)cc2)=C(C#N)CC1C(F)(F)F` (centres undefined) came in with a melting point of 158 to 160 °C.

In turn, `O=C(NN=Cc1cccnc1)NN=Cc1cccnc1` yielded a melting point of 202 to 204 °C.

With `CC(C#N)c1ccc(C(=O)c2ccc(Cl)s2)cc1` (centres undefined), the melting point turned out to be 90 °C.

Regarding `COc1cc2c(=O)c(C#N)c[nH]c2cc1F`, the melting point lay within 147 to 149 °C.

`C=CCSc1cc(C(=O)O)cc([N+](=O)[O-])c1-c1ccccc1` gave a melting point of 152 to 154 °C.

`CCn1cc(C=CC(=O)NC2CCNC(=O)C2)nc1-c1ccccc1` (centres undefined) came in with a melting point of 270 to 272 °C.

For `CN(C)CCC=C1c2ccccc2COc2ccc(CCO)cc21`, the melting point was 100 to 102 °C.

As to `CC(C)(C)c1cc(SCCC(=O)NC2C3CC4CC(C3)CC2C4)cc(C(C)(C)C)c1O` (centres undefined), the melting point stood at 156 °C.

With `Brc1ccc(-c2nn[nH]n2)cc1`, the melting point fell in the range of 271 to 273 °C.

`CCOc1ccc(OCc2ccc(OCc3nc(-c4ccccc4)oc3C)cc2)cc1CC(=O)O` returned a melting point of 122 to 123 °C.

`COC(=O)CNc1ccc(C(C)C)cc1`: the melting point was in the range of 35 to 36 °C.

Compound `CN1Cn2ncc([N+](=O)[O-])c2-c2ccccc21` came in with a melting point of 172 to 173 °C.

In turn, `CC=C1CCC2C3CC=C4CC(OC(C)=O)CC(OC(C)=O)C4(C)C3CCC12C` (centres undefined) came in with a melting point of 90 to 91 °C.

For `CCOC(=O)c1cc2c(O)nncc2nc1N1CCCCC1`, the melting point lay within 178 to 179 °C.

Consider `CCOC(=O)C(C)(C)Oc1ccc(OCc2oc(-c3ccc(C(F)(F)F)cc3)cc2C(=O)O)cc1`, for which the melting point is 87 to 88 °C.

`O=C(c1ccccc1)C(O)c1ccc(Cl)c(Cl)c1` (centres undefined): the melting point is 204 to 209 °C.

For `CCOC(=O)c1cn(C)c2nc3cc(F)c(F)cc3cc2c1=O`, the melting point lay in the range of 323 to 324 °C.

On to `CNCC1Cc2c(Cl)cc3c(c2O1)CCC3` (centres undefined), for which the melting point lay within 58 to 60 °C.

With `COc1ccc(Nc2ccc(O)cc2)c(CO)c1`, the melting point was in the range of 96.5 to 97 °C.

For `CCCCCC(=O)OCn1cc(F)c(=O)[nH]c1=O`, the melting point lay in the range of 95 to 96 °C.

Take `CCOC1Nc2c(Br)cc(Br)cc2S(=O)(=O)N1` (centres undefined): the melting point fell in the range of 96 to 98 °C.

As to `Oc1ccc(Oc2ncc(Br)cn2)cc1`, the melting point is 178 °C.

With `CCN(CC)CCNC(=O)N1CCCC(S(=O)(=O)c2ccc(OCCN(C)C)cc2)C1` (centres undefined), the melting point lay within 79 to 80 °C.

Compound `CCN1C(=O)C(C)(C)C(=O)N(C)c2cc(CN(CCn3cc(C)c4occc4c3=O)Cc3scnc3C)ccc21` came in with a melting point of 134 to 136 °C.

`CC(C)(C)OC(=O)[C@@H]1CC[C@H](CC(=O)O)N1Cc1ccccc1` showed a melting point of 95 to 96 °C.

On to `C=CCc1cc(C=CC(=O)O)ccc1O`, for which the melting point fell in the range of 132 to 133 °C.

Consider `COc1cc2ncc(C#N)c(Nc3cccc(N)c3)c2cc1OC`, for which the melting point lay within 222 to 228 °C.

`O=C(O)c1ccc(C=Cc2cc(=O)cc(-c3ccccc3)o2)cc1` yielded a melting point above 300 °C.

In the case of `CCOC(=O)c1cc2cccc(N(C)S(=O)(=O)c3cccs3)c2[nH]1`, the melting point fell in the range of 164 to 165 °C.

Turning to `CC1Cc2c(cc(C(C)(C)C)c(O)c2C(C)(C)C)O1` (centres undefined), the melting point was 86.8 °C.

As for `CCOC(=O)C(=Cc1cc(C(C)(C)C)c(O)c(C(C)(C)C)c1)c1cccnc1`, the melting point was found to be 120 °C.

`Cc1ccc(C2(C#N)C3CC4CC(C3)CC2C4)cc1` (centres undefined) registered a melting point of 99 to 100 °C.

`O=C(Nc1nccs1)c1nc(-c2ccc(N3CCCCCC3)cc2)[nH]c1-c1ccc(Cl)cc1` showed a melting point of 246 to 247 °C.

For the compound `CCC(=O)N1C(=O)OC(C)(C)[C@@H]1C`, the melting point turned out to be 86 °C.

As to `Nc1c(Cl)cc(C(O)CNCCCCCCOCCCCc2ccccc2)cc1Cl` (centres undefined), the melting point fell in the range of 74 to 76 °C.

For the compound `OCc1ccc(C2CCCc3cncn32)cc1` (centres undefined), the melting point fell in the range of 142 to 145 °C.

In turn, `COc1ccccc1CNC(=O)c1ccc2nc(N[C@@H]3CCc4ccccc43)ccc2c1` came in with a melting point of 168 °C.

`Cc1nc[nH]c1CSCCNc1cc(=O)cc[nH]1`: the melting point lay in the range of 208 to 210 °C.

In the case of `COc1cccnc1CCCCNc1nc(=O)c(C(O)c2ccc(C)nc2)c[nH]1` (centres undefined), the melting point was 82 °C.

`O=S(=O)(N[C@H](CO)Cc1c[nH]c2ccccc12)c1cccc2ccccc12` showed a melting point of 85 to 87 °C.

In turn, `CC(=O)Nc1ccccc1OCCCN1CCC(c2noc3cc(F)ccc23)CC1` yielded a melting point of 118 to 120 °C.

`Nc1ccc(C2CCSCC2)c(F)c1` showed a melting point of 96 to 98 °C.

In turn, `O=C1c2cnc3[nH]ncc3c2C(=O)N1CCc1ccccc1` showed a melting point of 237 to 239 °C.

Regarding `Cn1c(=O)[nH]c(=O)c2c1ncn2CC(=O)Nc1ccc(C2CCCC2)cc1`, the melting point was in the range of 295 to 300 °C.

The compound `Nc1cc(Oc2ccc3c(c2)CCN3C(=O)Nc2cccc(C(F)(F)F)c2)ncn1` had a melting point of 186 to 187 °C.

In turn, `Cc1cc(Cn2nnn(-c3ccc(C(F)(F)F)cc3)c2=O)ccc1NC(=O)c1cccc(I)c1C(=O)NC(C)(C)CS(C)(=O)=O` showed a melting point of 108 to 112 °C.

With `N#Cc1cnn2c(C(F)(F)F)cc(-c3ccc(C(F)(F)F)cc3)nc12`, the melting point was determined as 176 °C.

With `CCC1(C)Cc2c(C)c(N3CCN(c4ccc(OC)cc4)CC3)c(C)c(C)c2O1` (centres undefined), the melting point lay within 106 to 110 °C.

`COc1ccc2[nH]c(S(=O)Cc3cc(N4CCCCC4)c(Br)cn3)nc2c1` (centres undefined) registered a melting point of 114 to 118 °C.

In the case of `CCOC(=O)c1cnc(-c2cc3cccc(N(C)S(=O)(=O)c4cccs4)c3n2COC)s1`, the melting point was in the range of 142 to 143 °C.

The compound `Cc1ccc2c3c(ccc2n1)OCC(CN1CCC2(CC1)C(=O)NCN2c1ccccc1)O3` (centres undefined) gave a melting point of 199 to 201 °C.

`COc1ccc(C2(c3ccc(OC)cc3)CN(c3ccc(S(C)(=O)=O)cc3)C(c3ccc(Cl)cc3)=N2)cc1` gave a melting point of 110 to 113 °C.

With `COc1cc2c(cc1Nc1ncc(Cl)c(Nc3ccc(N4CCOCC4)cc3OC)n1)C(C)(C)CCC(=O)N2`, the melting point lay in the range of 246 to 248 °C.

Compound `Cc1cc(-c2[nH]nc3c2C(=O)c2c(NC(=O)NN4CCN(C)CC4)cccc2-3)c(C)s1` returned a melting point of 250 °C.

The compound `c1cc(C2NCCc3sccc32)ccn1` (centres undefined) gave a melting point of 81.8 to 83.8 °C.

Compound `CN(C)CCn1c(=O)c2cccc([N+](=O)[O-])c2c2cnc3cc4c(cc3c21)OCO4` yielded a melting point of 96 to 97 °C.

As for `CCOC(=O)c1cn(-c2ccccc2)c2c([N+](=O)[O-])c(Cl)c(F)cc2c1=O`, the melting point lay in the range of 186 to 188 °C.

The compound `COc1cc(C#CC(=O)NCCCNC(=O)C#Cc2cc(OC)c(OC)c(OC)c2)cc(OC)c1OC` returned a melting point of 158 to 160 °C.

As to `CCCc1ccc(C=NN=Cc2ccc(F)c(F)c2)cc1`, the melting point worked out at 50 °C.

Turning to `O=C(Nc1n[nH]c(=S)s1)N[C@@H](Cc1ccccc1)C(=O)N1CCN(c2ccccn2)CC1`, the melting point lay in the range of 220 to 222 °C.
